Substitutions are numbered along the chain they refer to. Like-named read-outs stand apart in the source and are kept apart here.
Key:
AHCY D86G = target: T1, AHCY D86G (Homo sapiens, UniProt P23526, D86G); assay: Differential Scanning Fluorimetry (DSF), thermal unfolding; format: binding; settings: for TM = Temperature at the midpoint of protein unfolding transition: No NAD^+: 49,55; for ΔTm at 100 µM: read-out: ΔTM (midpoint of thermal unfolding shifted by)
T1 construct: made in house; host or cells: E. coli DH5a (with or without GroESL co-expression)
T1 sequence (P23526 1-432 D86G): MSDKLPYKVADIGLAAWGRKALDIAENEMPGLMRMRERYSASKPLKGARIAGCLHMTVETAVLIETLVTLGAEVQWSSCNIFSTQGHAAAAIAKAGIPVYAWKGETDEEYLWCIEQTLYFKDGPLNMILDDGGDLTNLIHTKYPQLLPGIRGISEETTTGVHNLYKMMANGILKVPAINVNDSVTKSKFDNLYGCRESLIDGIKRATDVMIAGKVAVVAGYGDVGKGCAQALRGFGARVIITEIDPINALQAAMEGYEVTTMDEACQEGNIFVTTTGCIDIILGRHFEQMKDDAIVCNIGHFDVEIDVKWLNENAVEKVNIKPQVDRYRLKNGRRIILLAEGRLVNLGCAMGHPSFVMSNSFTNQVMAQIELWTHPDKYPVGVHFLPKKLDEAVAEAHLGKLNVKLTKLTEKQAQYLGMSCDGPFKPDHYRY
Description: (§1) The potential of the binding of NAD^+ or an analogue of NAD^+ to the NAD^+ binding site and of the binding of an analogue of a substrate of AHCY to the substrate binding site of AHCY in stabilizing the enzyme and its activity was analyzed by use of Differential Scanning Fluorimetry (DSF). The following substrates were tested in the given concentrations:
(§2) The following five mutant proteins were selected for testing: • R49C, D86G, Y143C, A89V and Y379C.
(§3) Fluorescence measurements were carried out on a 7900 HT fast real-time PCR System (Applied Biosystems, Thermo Fisher Scientific Inc. USA). The data was recorded in Abi Prism SDS software. Samples contained AHCY-Maltose-Binding Protein fusion proteins, HEPES, and SYPRO Orange fluorescence dye (SYPRO® Orange Protein Gel Stain from Invitrogen, Thermo Fisher Scientific Inc. USA) in a 1:1000 dilution), which binds to exposed hydrophobic sites of unfolded proteins. For this dye, the wavelengths used for excitation and emission are 492 nm, respectively 610 nm. The assay was measured in quadruplicates on a 96-well PCR plate. Thermal denaturation was monitored by following the changes in SYPRO Orange fluorescence emission (excitation at 492 nm, emission at 610 nm). The measurement was performed in a 25 °C to 75 °C range, at a rate of 2 °C/min. Thermal denaturation curves were obtained by the plotting of fluorescence intensities against temperature and TM values as the midpoint of the protein-unfolding transition were calculated using the Boltzmann sigmoidal non-linear regression function in GraphPad Prism (GraphPad Prism 5.0, GraphPad Software Inc. USA). All measurements were corrected for background reduction of SYPRO Orange fluorescence. To analyze the stabilizing effect of different compounds different concentrations of NAD^+, NAD^+ analogues and substrate analogues were added to the samples. Significances between wild-type and mutated apoenzymes and holoenzymes with stabilizing agents were calculated by one-way analysis of variance followed by Dunnett's post test (GraphPad Prism 5.0, GraphPad Software Inc. USA).
(§4) DSF is an excellent means to monitor global thermal unfolding events by probing the accessibility of the fluorescent dye Sypro Orange to hydrophobic groups within a protein. DSF was used in order to assess whether mutated AHCY proteins can be stabilized by various compounds at increasing temperatures. The stabilizing effect was evaluated by comparison of the unfolding transition midpoints (fraction unfolded = 0.5) as an operative measure of protein stability and by graphical analysis of the thermal denaturation curves. The midpoint of thermal unfolding of wild-type AHCY was shifted by an average of 2.27 °C towards higher temperatures by NAD^+ and NAD^+ analogues.

AHCY R49C = target: T2, AHCY R49C (Homo sapiens, UniProt P23526, R49C); assay: as above; format: binding; settings: for TM = Temperature at the midpoint of protein unfolding transition: No NAD^+: 49,84
T2 construct: made in house; host or cells: E. coli DH5a (with or without GroESL co-expression)
T2 sequence (P23526 1-432 R49C): T1 sequence (P23526 1-432 D86G) with R49C, G86D
Description: as §1, §2, §3, §4

[1] = test system: AHCY wild-type and mutated AHCY proteins; assay: Differential Scanning Fluorimetry (DSF), statements over the panel of proteins; format: binding, human; settings: wild-type and/or mutated AHCY proteins, 1-100 µM or 5-100 µM
wild-type AHCY = target: T3, wild-type AHCY (Homo sapiens, UniProt P23526); assay: Differential Scanning Fluorimetry (DSF), thermal unfolding; format: binding; settings: for TM = Temperature at the midpoint of protein unfolding transition: Wt, No NAD^+: 51,98
T3 construct: made in house; host or cells: E. coli DH5a (with or without GroESL co-expression)
T3 sequence (P23526 whole entry): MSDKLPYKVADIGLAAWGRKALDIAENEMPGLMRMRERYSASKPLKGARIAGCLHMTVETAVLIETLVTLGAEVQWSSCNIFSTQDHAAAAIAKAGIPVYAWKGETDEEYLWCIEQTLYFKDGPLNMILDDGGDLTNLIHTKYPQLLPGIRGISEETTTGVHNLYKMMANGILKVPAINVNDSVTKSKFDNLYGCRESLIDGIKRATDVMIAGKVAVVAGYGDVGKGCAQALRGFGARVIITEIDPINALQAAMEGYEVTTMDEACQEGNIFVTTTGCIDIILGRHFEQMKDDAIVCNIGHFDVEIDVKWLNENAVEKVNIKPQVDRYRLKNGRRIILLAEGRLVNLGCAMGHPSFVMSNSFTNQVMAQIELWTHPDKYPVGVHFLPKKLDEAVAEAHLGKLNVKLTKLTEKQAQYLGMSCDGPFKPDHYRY
Description: as §1, §3, §4

AHCY A89V = target: T4, AHCY A89V (Homo sapiens, UniProt P23526, A89V); assay: as above; format: binding; settings: for TM = Temperature at the midpoint of protein unfolding transition: No NAD^+: 50,29
T4 construct: made in house; host or cells: E. coli DH5a (with or without GroESL co-expression)
T4 sequence (P23526 1-432 A89V): T1 sequence (P23526 1-432 D86G) with G86D, A89V
Description: as §1, §2, §3, §4

AHCY Y379C = target: T5, AHCY Y379C (Homo sapiens, UniProt P23526, Y379C); assay: as above; format: binding; settings: No NAD^+: 50,01
T5 construct: made in house; host or cells: E. coli DH5a (with or without GroESL co-expression)
T5 sequence (P23526 1-432 Y379C): T1 sequence (P23526 1-432 D86G) with G86D, Y379C
Description: as §1, §2, §3, §4

AHCY Y143C = target: T6, AHCY Y143C (Homo sapiens, UniProt P23526, Y143C); assay: as above; format: binding; settings: No NAD^+: 49,34
T6 construct: made in house; host or cells: E. coli DH5a (with or without GroESL co-expression)
T6 sequence (P23526 1-432 Y143C): T1 sequence (P23526 1-432 D86G) with G86D, Y143C
Description: as §1, §2, §3, §4

`Nc1nccc2c1ncn2[C@@H]1C=C(CO)[C@@H](O)[C@H]1O` [DZNep, 3-Deazaneplanocin A] was tested, and the “increase in TM (stabilizing the unfolding by)” value (AHCY D86G; D86G, concentration not given) was 11.18 °C and the ΔTm at 10 µM (AHCY D86G; read-out: ΔTM) was 13.5 °C.
For `NC(=O)c1ccc[n+]([C@@H]2O[C@H](COP(=O)([O-])OP(=O)(O)OC[C@H]3O[C@@H](n4cnc5c4ncn4ccnc54)[C@H](O)[C@@H]3O)[C@@H](O)[C@H]2O)c1` [E-NAD^+, nicotinamide 1,N^6-ethenoadenine dinucleotide], the “ΔTM (increase in TM)” value (AHCY R49C; concentration not given) was 4.36 °C and the “stabilizing effect on thermal stability (in words)” value (from here on “stabilizing effect”) [1] was “considerable stabilization”.
`NC(=O)c1ccc[n+]([C@@H]2O[C@H](COP(=O)([O-])OP(=O)(O)OC[C@H]3O[C@@H](n4cnc5c(N)ncnc54)[C@H](O)[C@@H]3O)[C@@H](O)[C@H]2O)c1` [NAD^+, nicotinamide adenine dinucleotide] was tested, and the ΔTm at 100 µM (wild-type AHCY; AHCY wild-type, 100 µM, read-out: stabilized the unfolding transition by (shift of TM)) was 2.34 °C, the “TM = Temperature at the midpoint of protein unfolding transition” value (wild-type AHCY; 5 µM) was 52,24 and the “TM = Temperature at the midpoint of protein unfolding transition” value (wild-type AHCY; 11 µM) was 53,99. The “TM = Temperature at the midpoint of protein unfolding transition” value (wild-type AHCY; 100 µM) was 54,32, the “TM = Temperature at the midpoint of protein unfolding transition” value (AHCY D86G; D86G, 5 µM) was 51,88 and the “TM = Temperature at the midpoint of protein unfolding transition” value (AHCY D86G; D86G, 11 µM) was 53,51. For the same compound, the “TM = Temperature at the midpoint of protein unfolding transition” value (AHCY D86G; D86G, 100 µM) was 54,02, the ΔTm at 100 µM (AHCY D86G) was 4.47 °C and the “TM = Temperature at the midpoint of protein unfolding transition” value (AHCY A89V; 5 µM) was 51,97. The “TM = Temperature at the midpoint of protein unfolding transition” value (AHCY A89V; 11 µM) was 53,52, the “TM = Temperature at the midpoint of protein unfolding transition” value (AHCY A89V; 100 µM) was 54,59 and the “TM = Temperature at the midpoint of protein unfolding transition” value (AHCY Y379C; 5 µM) was 51,31. For the same compound, the “TM = Temperature at the midpoint of protein unfolding transition” value (AHCY Y379C; 11 µM) was 52,45, the “TM = Temperature at the midpoint of protein unfolding transition” value (AHCY Y379C; 100 µM) was 52,48 and the “TM = Temperature at the midpoint of protein unfolding transition” value (AHCY R49C; 5 µM) was 51,48. The “TM = Temperature at the midpoint of protein unfolding transition” value (AHCY R49C; 11 µM) was 52,55, the “TM = Temperature at the midpoint of protein unfolding transition” value (AHCY R49C; 100 µM) was 52,75 and the “TM = Temperature at the midpoint of protein unfolding transition” value (AHCY Y143C; 5 µM) was 50,62. The “TM = Temperature at the midpoint of protein unfolding transition” value (AHCY Y143C; 11 µM) was 52,36, the “TM = Temperature at the midpoint of protein unfolding transition” value (AHCY Y143C; 100 µM) was 52,17 and the “stabilizing effect” value [1] was “very good effects”.
With `NC(=S)c1ccc[n+]([C@@H]2O[C@H](COP(=O)([O-])OP(=O)(O)OC[C@H]3O[C@@H](n4cnc5c(N)ncnc54)[C@H](O)[C@@H]3O)[C@@H](O)[C@H]2O)c1` [S-NAD^+, thionicotinamide adenine dinucleotide] the ΔTm at 100 µM (AHCY D86G; D86G, 100 µM) was 6.7 °C and the “stabilizing effect” value [1] was “improved resistance against thermal stress”.
For `C=C1CCC[C@H]2[C@](C)(CC3=C(O)C(=O)C=C(OC)C3=O)[C@@H](C)CC[C@]12C` [ilimaquinone], the “shifting the midpoint of thermal unfolding by” value (AHCY A89V; concentration not given) was 8.9 °C.
For `NC(=O)c1ncn([C@@H]2O[C@H](CO)[C@@H](O)[C@H]2O)n1` [ribavirin, 1-[(2R,3R,4S,5R)-3,4-dihydroxy-5-(hydroxymethyl)oxolan-2-yl]-1H-1,2,4-triazole-3-carboxamide], the “stabilizing effect” value [1] was “good stabilizing effect”.
